Data set [1] concerns the target Cytochrome P450 3A4 (Homo sapiens, UniProt P08684).
Data set [2] deals with Cytochrome P450 2D6 (Homo sapiens, UniProt P10635).
In data set [3] the target is Histamine H1 receptor (Homo sapiens, UniProt P35367). As to the kind of experiment: Binding affinity to histamine H1 receptor.
Data set [4] deals with hERG (KCNH2) (Homo sapiens, UniProt Q12809). As to the kind of experiment: Displacement of labeled dofetilide from human ERG at 3 uM. As to conditions: probe labeled dofetilide.
Sequence of hERG (KCNH2) (Q12809 whole entry): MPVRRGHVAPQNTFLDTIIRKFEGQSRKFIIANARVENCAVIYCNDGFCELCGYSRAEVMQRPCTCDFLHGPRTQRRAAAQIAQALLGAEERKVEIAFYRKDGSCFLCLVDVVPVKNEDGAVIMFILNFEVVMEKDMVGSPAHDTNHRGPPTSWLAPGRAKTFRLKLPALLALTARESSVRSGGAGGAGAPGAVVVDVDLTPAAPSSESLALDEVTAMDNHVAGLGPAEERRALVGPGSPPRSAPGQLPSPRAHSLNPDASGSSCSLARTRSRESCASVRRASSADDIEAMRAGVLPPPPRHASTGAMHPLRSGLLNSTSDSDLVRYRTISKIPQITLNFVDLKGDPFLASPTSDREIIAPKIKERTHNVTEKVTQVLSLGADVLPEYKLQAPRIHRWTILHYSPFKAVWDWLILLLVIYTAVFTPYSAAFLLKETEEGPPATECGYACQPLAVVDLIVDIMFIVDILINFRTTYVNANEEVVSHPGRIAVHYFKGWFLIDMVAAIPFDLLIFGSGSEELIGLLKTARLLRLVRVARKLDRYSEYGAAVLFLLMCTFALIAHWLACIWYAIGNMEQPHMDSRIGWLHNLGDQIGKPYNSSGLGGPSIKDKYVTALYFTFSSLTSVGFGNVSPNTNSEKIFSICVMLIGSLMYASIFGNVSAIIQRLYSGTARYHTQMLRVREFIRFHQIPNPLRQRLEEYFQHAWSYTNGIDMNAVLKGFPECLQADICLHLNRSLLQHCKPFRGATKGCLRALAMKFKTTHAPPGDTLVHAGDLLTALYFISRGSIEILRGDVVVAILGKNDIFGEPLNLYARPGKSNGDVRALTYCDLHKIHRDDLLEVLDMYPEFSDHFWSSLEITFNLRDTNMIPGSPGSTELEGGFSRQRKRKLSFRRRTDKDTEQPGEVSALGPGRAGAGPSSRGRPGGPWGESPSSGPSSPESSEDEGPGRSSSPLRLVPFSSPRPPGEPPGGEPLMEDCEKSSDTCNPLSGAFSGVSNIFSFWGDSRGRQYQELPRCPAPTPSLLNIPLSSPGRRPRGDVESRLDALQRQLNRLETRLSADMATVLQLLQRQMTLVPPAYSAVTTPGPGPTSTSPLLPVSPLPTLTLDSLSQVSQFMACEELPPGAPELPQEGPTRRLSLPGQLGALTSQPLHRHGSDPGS
The nature of data set [5]: Ratio of drug level in brain to plasma in rat at 1 mg/kg, iv after 4 hrs. Format: ADME, organism-based. On the set-up: dose 1 mg/kg, route intravenous. Conditions: read-out: BPR.
Data set [6] can be described thus: Drug uptake in rat brain at 1 mg/kg, iv after 4 hrs. As to conditions: read-out: Drug uptake. On the set-up: dose 1 mg/kg, route intravenous. Format: ADME, organism-based.

The structures appear in SMILES notation. pIC50, pKi: −log10 of the molar value.

Sequence of Histamine H1 receptor (P35367 whole entry): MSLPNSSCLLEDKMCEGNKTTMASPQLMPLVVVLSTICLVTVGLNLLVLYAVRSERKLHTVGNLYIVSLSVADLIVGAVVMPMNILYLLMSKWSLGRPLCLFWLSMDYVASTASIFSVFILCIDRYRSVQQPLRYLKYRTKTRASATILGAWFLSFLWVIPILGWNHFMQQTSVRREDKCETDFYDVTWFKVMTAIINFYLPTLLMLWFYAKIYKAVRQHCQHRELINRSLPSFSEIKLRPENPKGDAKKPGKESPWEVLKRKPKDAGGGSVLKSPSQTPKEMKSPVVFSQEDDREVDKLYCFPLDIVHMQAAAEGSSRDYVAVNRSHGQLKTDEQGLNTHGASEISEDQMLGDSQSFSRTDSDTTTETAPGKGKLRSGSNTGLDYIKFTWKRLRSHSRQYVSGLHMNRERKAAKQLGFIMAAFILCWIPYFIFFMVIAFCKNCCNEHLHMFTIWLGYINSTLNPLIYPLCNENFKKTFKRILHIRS
Sequence of Cytochrome P450 2D6 (P10635 whole entry): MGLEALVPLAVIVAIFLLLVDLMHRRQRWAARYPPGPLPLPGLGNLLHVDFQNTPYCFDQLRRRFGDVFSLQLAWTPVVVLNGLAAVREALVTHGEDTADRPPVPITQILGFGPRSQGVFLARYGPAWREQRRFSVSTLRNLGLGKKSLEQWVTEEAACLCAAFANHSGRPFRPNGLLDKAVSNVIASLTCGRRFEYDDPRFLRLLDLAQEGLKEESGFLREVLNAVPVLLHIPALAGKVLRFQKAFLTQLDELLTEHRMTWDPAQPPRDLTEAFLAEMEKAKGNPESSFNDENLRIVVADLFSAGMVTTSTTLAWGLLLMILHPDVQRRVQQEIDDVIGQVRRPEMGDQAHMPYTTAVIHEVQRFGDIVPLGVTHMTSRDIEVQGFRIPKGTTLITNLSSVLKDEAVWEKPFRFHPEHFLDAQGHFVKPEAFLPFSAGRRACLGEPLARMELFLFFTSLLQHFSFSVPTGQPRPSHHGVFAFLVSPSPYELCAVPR
Sequence of Cytochrome P450 3A4 (P08684 whole entry): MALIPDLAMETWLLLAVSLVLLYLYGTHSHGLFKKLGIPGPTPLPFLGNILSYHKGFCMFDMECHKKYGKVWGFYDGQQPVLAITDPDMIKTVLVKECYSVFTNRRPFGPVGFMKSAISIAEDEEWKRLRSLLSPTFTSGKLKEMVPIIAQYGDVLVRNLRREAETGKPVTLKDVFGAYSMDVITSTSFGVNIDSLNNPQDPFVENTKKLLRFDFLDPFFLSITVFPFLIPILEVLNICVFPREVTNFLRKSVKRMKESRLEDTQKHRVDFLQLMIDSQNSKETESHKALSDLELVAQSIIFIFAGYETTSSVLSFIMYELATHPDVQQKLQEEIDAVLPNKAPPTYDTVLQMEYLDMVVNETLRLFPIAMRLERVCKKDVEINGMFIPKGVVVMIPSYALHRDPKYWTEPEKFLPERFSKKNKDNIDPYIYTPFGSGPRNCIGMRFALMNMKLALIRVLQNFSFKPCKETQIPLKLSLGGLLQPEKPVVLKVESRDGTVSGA

As for `CCN(C)CCC1=C(Cc2cnccn2)c2ccccc2C1`, the pIC50 in data set [1] was under 5.00; in data set [2], 5.36. In data set [3], this compound had a negative-log Ki (pKi) of 8.14. Moreover, in data set [4], the inhibition at 3 µM turned out to be 0%.
Consider `CCCN(C)CCC1=C(Cc2cnccn2)c2ccccc2C1`, for which the pIC50 in data set [1] was 5.39; in data set [2], 6.01. Further, the pKi in data set [3] is 7.39. This compound returned an inhibition at 3 µM in data set [4] of 0%.
`CN(CCF)CCC1=C(Cc2cnccn2)c2ccccc2C1`: the pIC50 in data set [1] is under 5.00; in data set [2] it was 5.51. For the same compound, in data set [4], the inhibition at 3 µM was 0%.
Consider `C[C@H](C1=C(CCN(C)CCF)Cc2ccccc21)c1cnccn1`, for which the results for the pIC50 in data set [1] and in data set [2] were under 5.00 and 5.58, respectively. The negative-log Ki (pKi) in data set [3] is 7.89. The inhibition at 3 µM in data set [4] is 0%.
Turning to `C[C@H](C1=C(CCN(C)CC#N)Cc2ccccc21)c1cnccn1`, the pIC50 in data set [1] and in data set [2] was under 5.00 throughout. This compound also had a pKi in data set [3] of 7.49. In data set [4], this compound yielded an inhibition at 3 µM of 0%.
In the case of `C[C@H](C1=C(CCN(C)CCC#N)Cc2ccccc21)c1cnccn1`, the pIC50 in data set [1] and in data set [2] was under 5.00 in each case. This compound showed a pKi in data set [3] of 6.96. The same compound registered an inhibition at 3 µM in data set [4] of 0%.
With `C[C@H](C1=C(CCN(C)CCC(F)(F)F)Cc2ccccc21)c1cnccn1`, the figures for the pIC50 in data set [1] and in data set [2] were under 5.30 and 5.14, respectively. For the same compound, in data set [3], the pKi was 7.04. Also, the inhibition at 3 µM in data set [4] is 0%.
As for `c1ccc2c(c1)CC(CCN1CCC1)=C2Cc1cnccn1`, the negative logarithm of the IC50 (pIC50) in data set [1] was under 5.00; in data set [2], 5.05. In data set [3], this compound had a pKi of 8.37. In addition, the inhibition at 3 µM in data set [4] was 0%.
On to `c1ccc2c(c1)CC(CCN1CCCC1)=C2Cc1cnccn1`, for which the pIC50 in data set [1] is under 5.00; in data set [2] it was 5.47. The compound also showed a pKi in data set [3] of 8.55. The compound also returned an inhibition at 3 µM in data set [4] of 0%.
For `FC1CN(CCC2=C(Cc3cnccn3)c3ccccc3C2)C1` the same measures were under 5.00, 5.19, 7.31 and 0%.
In the case of `FC1(F)CN(CCC2=C(Cc3cnccn3)c3ccccc3C2)C1`, the negative logarithm of the IC50 (pIC50) in data set [2] was under 5.00. Also, in data set [3], the pKi was 5.34. In data set [4], this compound showed an inhibition at 3 µM of 0%.
For `FC1(F)CCN(CCC2=C(Cc3cnccn3)c3ccccc3C2)C1`, the pIC50 in data set [1] is 5.85; in data set [2], 5.12. The pKi in data set [3] was 6.60. Besides, 3 µM produced 0% inhibition in data set [4].
As to `FC1CCN(CCC2=C(Cc3cnccn3)c3ccccc3C2)C1` (stereo unspecified), the pIC50 in data set [1] was under 5.00; in data set [2] it was 5.37. Further, the Kp at 4 h in data set [5] came to 3.9. Besides, the concentration at 4 h in data set [6] is 57 ng/g. The compound further gave a pKi in data set [3] of 7.98. Further, 3 µM produced 0% inhibition in data set [4].
Take `C[C@H](C1=C(CCN(C)Cc2ccco2)Cc2ccccc21)c1cnccn1`: the pIC50 in data set [1] is 5.56; in data set [2], 5.36. In data set [3], this compound showed a pKi of 8.09. In addition, the inhibition at 3 µM in data set [4] came to 0%.
With `C[C@H](C1=C(CCN(C)Cc2cccs2)Cc2ccccc21)c1cnccn1`, the pIC50 is 5.74 in data set [1] and 5.85 in data set [2]. The same compound had a pKi in data set [3] of 8.17. This compound also yielded an inhibition at 3 µM in data set [4] of 0%.
`C[C@H](C1=C(CCN(C)Cc2nccs2)Cc2ccccc21)c1cnccn1`: the results for the pIC50 in data set [1] and in data set [2] were 5.55 and under 5.00, respectively. The compound further had a pKi in data set [3] of 7.32. In data set [4], this compound yielded an inhibition at 3 µM of 0%.
Consider `C[C@H](C1=C(CCN(C)Cc2ncco2)Cc2ccccc21)c1cnccn1`, for which the pIC50 was 5.32 in data set [1] and under 5.00 in data set [2]. Also, in data set [3], the pKi is 6.79. In addition, in data set [4], the inhibition at 3 µM is 0%.
As for `C[C@H](C1=C(CCN(C)Cc2ncc[nH]2)Cc2ccccc21)c1cnccn1`, the pIC50 is 5.35 in data set [1] and 5.23 in data set [2]. Besides, in data set [3], the pKi is 8.06. This compound yielded an inhibition at 3 µM in data set [4] of 0%.
As for `C[C@H](C1=C(CCN(C)Cc2nccn2C)Cc2ccccc21)c1cnccn1`, the pIC50 in data set [1] was 5.81; in data set [2] it was 5.25. The compound further had a negative-log Ki (pKi) in data set [3] of 7.55. Besides, in data set [4], the inhibition at 3 µM was 0%.
For `C[C@H](C1=C(CCN(C)Cc2ccccn2)Cc2ccccc21)c1cnccn1` the same measures were 5.32, 5.24, 7.86 and 0%.
In the case of `C[C@H](C1=C(CCN(C)Cc2ccncc2)Cc2ccccc21)c1cnccn1`, in data set [2], the pIC50 is 5.10. Besides, the pKi in data set [3] is 8.31. In data set [4], this compound yielded an inhibition at 3 µM of 0%.
On to `C[C@H](C1=C(CCN(C)Cc2cnccn2)Cc2ccccc21)c1cnccn1`, for which the pIC50 in data set [1] and in data set [2] was under 5.00 each time. The same compound gave a pKi in data set [3] of 7.61. This compound had an inhibition at 3 µM in data set [4] of 0%.
`C[C@H](C1=C(CCN(C)CC2CCOCC2)Cc2ccccc21)c1cnccn1`: the pIC50 is under 5.00 in data set [1] and 5.03 in data set [2]. The compound further gave a pKi in data set [3] of 7.82. Also, in data set [4], at 3 µM the inhibition was 0%.

The record behind these values is ChEMBL document CHEMBL1667811, “Influence of pKa on the biotransformation of indene H1-antihistamines by CYP2D6” (Bioorg Med Chem Lett, 2011).
